Laboratory results: patent US20020007663A1, “Method of introducing an in situant into a vapor compression system, especially useful for leak detection, as well as an apparatus for leak detection and a composition useful for leak detection” (Mainstream Engineering Corporation, priority 1997, published 2002)
Where two headings read alike, the source gives them in different places.

Test: solubility of fluorescent in situants in POE oils, alcohols, AB oil and mineral oil
Details: for solubility in POE oil: two different POE oils
Protocol: We have measured the solubility of several fluorescent and daylight-visible in situants in various POE oils and prepared solutions comprised solely of the POE carrier fluid (i.e., no alcohol in the carrier fluid) and these in situants. An example composition is 30 wt. % N-phenyl-1-naphthylamine and 70 wt. % POE oil. […] For example, a composition was prepared with 30 wt. % N-phenyl-1-naphthylamine, 1 wt. % 7-diethylamino-4-methylcoumarin (coumarin 1) and 69 wt. % POE oil. […] The preferred final composition of the fluorescing or daylight visible in situant in the system oil will be below the solubility limits.

[1] = POE oil or alcohols, qualitative

| Compound | soluble in POE oil or alcohols | further results |
| --- | --- | --- |
| c1ccc(Nc2cccc3ccccc23)cc1 [N-phenyl-1-naphthylamine] | – | solubility in AB oil (AB oil): about 10 weight percent; solubility in alcohols: 20-30%; solubility in mineral oil (mineral oil): ~3 weight percent; solubility in POE oil: 20-30 % by wt. |
| c1ccc(Nc2ccc3ccccc3c2)cc1 [N-phenyl-2-naphthylamine] | – | soluble in POE oil or alcohols [1]: soluble; solubility in alcohols: 1-6%; solubility in POE oil: about 5 % by wt. |
| O=C1c2cccc(O)c2C(=O)c2cccc(O)c21 [anthrarufin] | soluble | – |
| c1ccc2c(c1)Nc1ccccc1S2 [phenothiazine] | – | soluble in POE oil or alcohols [1]: soluble |
| O=C1c2ccc(O)c(O)c2C(=O)c2c(O)ccc(O)c21 [quinalizarin] | soluble | – |

More lines, main results first:

| soluble in POE oil or alcohols | Compound | further results |
| --- | --- | --- |
| soluble | NC(=O)c1nc2ccc(O)cc2s1 [2-carbamoyl-6-hydroxybenzothiazole] | – |
| soluble | Oc1ccc2nc(-c3nc4ccccc4s3)sc2c1 [2′-(2-benzothiazolyl)-6′-hydroxybenzothiazole] | – |
| soluble | c1ccc(N=Nc2ccc(Nc3ccccc3)cc2)cc1 [4-(phenylazo)-diphenylamine] | – |
| soluble | c1ccc(Nc2ccccc2)cc1 [diphenylamine] | – |
| soluble | O=C1c2ccccc2C(=O)c2c(O)c(O)cc(O)c21 [purpurin] | – |
| soluble | Cc1ccc2nc(-c3ccc(N=NNc4ccc(-c5nc6ccc(C)c(S(=O)(=O)[O-])c6s5)cc4)cc3)sc2c1S(=O)(=O)[O-].[Na+].[Na+] [thiazole yellow G] | – |
| soluble | primuline | – |
